Target: T1, Mitogen-activated protein kinase kinase kinase 5 (Homo sapiens, UniProt Q99683)
T1 sequence (Q99683 whole entry): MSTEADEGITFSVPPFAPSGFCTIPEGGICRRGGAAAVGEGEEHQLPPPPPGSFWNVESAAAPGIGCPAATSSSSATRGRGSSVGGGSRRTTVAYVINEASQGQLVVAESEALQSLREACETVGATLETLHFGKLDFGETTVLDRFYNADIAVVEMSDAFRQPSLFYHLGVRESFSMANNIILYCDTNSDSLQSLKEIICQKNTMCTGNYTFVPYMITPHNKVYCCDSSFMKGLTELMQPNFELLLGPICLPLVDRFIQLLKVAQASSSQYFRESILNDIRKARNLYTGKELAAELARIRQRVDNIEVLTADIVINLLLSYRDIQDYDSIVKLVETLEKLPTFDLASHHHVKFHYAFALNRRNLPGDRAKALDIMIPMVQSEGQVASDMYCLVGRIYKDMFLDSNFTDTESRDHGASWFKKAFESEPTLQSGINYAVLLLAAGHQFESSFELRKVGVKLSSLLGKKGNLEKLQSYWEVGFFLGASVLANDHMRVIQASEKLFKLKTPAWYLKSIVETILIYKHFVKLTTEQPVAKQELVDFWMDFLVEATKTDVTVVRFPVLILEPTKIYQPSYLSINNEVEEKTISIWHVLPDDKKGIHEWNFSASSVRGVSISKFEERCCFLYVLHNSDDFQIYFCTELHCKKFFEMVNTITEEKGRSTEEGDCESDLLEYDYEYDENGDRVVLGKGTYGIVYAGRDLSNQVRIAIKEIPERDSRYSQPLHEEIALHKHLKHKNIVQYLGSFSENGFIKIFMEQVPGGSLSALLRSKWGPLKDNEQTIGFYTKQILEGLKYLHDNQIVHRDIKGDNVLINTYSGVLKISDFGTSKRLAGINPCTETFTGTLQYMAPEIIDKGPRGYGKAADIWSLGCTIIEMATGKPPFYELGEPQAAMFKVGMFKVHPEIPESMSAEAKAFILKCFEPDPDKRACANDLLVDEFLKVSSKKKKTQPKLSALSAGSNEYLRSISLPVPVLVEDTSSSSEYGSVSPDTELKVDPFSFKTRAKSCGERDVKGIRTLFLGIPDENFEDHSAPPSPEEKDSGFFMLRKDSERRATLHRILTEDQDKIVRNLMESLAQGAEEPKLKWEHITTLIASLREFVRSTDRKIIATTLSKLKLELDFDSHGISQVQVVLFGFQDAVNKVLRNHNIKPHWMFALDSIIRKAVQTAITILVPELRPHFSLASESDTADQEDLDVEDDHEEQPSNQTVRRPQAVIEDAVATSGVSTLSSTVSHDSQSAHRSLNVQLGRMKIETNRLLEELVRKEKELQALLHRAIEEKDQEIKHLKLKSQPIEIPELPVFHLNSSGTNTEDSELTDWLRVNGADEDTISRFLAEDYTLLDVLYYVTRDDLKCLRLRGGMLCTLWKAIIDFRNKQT
Experiment: Kinase Assay: The ASK1 enzymatic assay was run following Promega ASK1 Kinase Enzyme System (Cat #V3881). The kit provides the protocol, enzymes and all reagents necessary to run an assay.The compounds, enzyme, substrate and ATP were diluted in provided assay buffer. The final concentration of the enzyme was 50 nM, substrate (Myelin basic protein) 1 μg/mL and ATP 10 μM. The compound and the enzyme were pre-incubated in a 384-well white solid bottom plate (Greiner, Cat #784075) for 10 minutes. After incubation, the substrate and ATP were added and incubated for an additional 60 minutes. After 60 minutes, ADP-Glo™ was added and the plate was incubated for another 40 minutes. After 40 minutes, Kinase Detection Reagent was added and the plate was incubated for 45 minutes. After 45 minutes, the plate was read on a Perkin Elmer EnVision using luminescence read (0.5 seconds/well).

CC(=O)Nc1cccc(-c2cc3c(s2)C(=O)N(c2cccc(-c4nncn4C4CC4)n2)C3)c1
IC50: < 1 µM
